Several values for one entry are separate records, joined by “and”; a condition that tells them apart may be missing. Equal entries are not always repeated. Inconclusive results and toxic doses are left out. Rule as the data show it: active = T/C of 150% or more; inactive = T/C below 125%.
Test system: L1210 leukemia ip in BDF1 mice, survival T/C
Assay: NCI In Vivo Anticancer Drug Screen. Data for tumor model L1210 Leukemia (intraperitoneal) in B6D2F1 (BDF1) mice
Conditions: endpoint: mean survival time, higher = longer survival
In short: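 Tumor was transplanted into mice, which were then dosed with test compound or vehicle alone. Survival was recorded for each group, and the treated figure was expressed relative to the control figure.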

[1] = dose: 25.0 mg/kg/injection, schedule: Q01DX009 (ip), vehicle: saline with Tween-80
[2] = dose: 100.0 mg/kg/injection, schedule: Q04DX003 (ip), vehicle: Klucel (hydroxypropylcellulose) (HPC)
[3] = dose: 200.0 mg/kg/injection, schedule: Q04DX003 (ip), vehicle: Klucel (hydroxypropylcellulose) (HPC)
[4] = dose: 100.0 mg/kg/injection, schedule: Q04DX003 (ip), vehicle: saline with Tween-80
[5] = dose: 200.0 mg/kg/injection, schedule: Q04DX003 (ip), vehicle: saline with Tween-80
[6] = dose: 400.0 mg/kg/injection, schedule: Q04DX003 (ip), vehicle: saline with Tween-80
[7] = dose: 100.0 mg/kg/injection, schedule: Q01DX001 (ip), vehicle: carboxymethylcellulose (CMC)
[8] = dose: 200.0 mg/kg/injection, schedule: Q01DX001 (ip), vehicle: carboxymethylcellulose (CMC)
[9] = dose: 100.0 mg/kg/injection, schedule: Q01DX009 (ip), vehicle: Klucel (hydroxypropylcellulose) (HPC)
[10] = dose: 200.0 mg/kg/injection, schedule: Q01DX009 (ip), vehicle: Klucel (hydroxypropylcellulose) (HPC)
[11] = dose: 400.0 mg/kg/injection, schedule: Q01DX009 (ip), vehicle: Klucel (hydroxypropylcellulose) (HPC)
[12] = dose: 400.0 mg/kg/injection, schedule: Q04DX003 (ip), vehicle: Klucel (hydroxypropylcellulose) (HPC)
[13] = dose: 100.0 mg/kg/injection, schedule: Q01DX001 (ip), vehicle: other
[14] = dose: 200.0 mg/kg/injection, schedule: Q01DX001 (ip), vehicle: other
[15] = dose: 400.0 mg/kg/injection, schedule: Q01DX001 (ip), vehicle: other
[16] = dose: 50.0 mg/kg/injection, schedule: Q01DX009 (ip), vehicle: Klucel (hydroxypropylcellulose) (HPC)
[17] = dose: 25.0 mg/kg/injection, schedule: Q04DX003 (ip), vehicle: saline with Tween-80
[18] = dose: 50.0 mg/kg/injection, schedule: Q01DX009 (ip), vehicle: saline with Tween-80
[19] = dose: 100.0 mg/kg/injection, schedule: Q01DX009 (ip), vehicle: saline with Tween-80
[20] = dose: 100.0 mg/kg/injection, schedule: Q01DX001 (ip), vehicle: saline
[21] = dose: 200.0 mg/kg/injection, schedule: Q01DX001 (ip), vehicle: saline
[22] = dose: 400.0 mg/kg/injection, schedule: Q01DX001 (ip), vehicle: saline
[23] = dose: 100.0 mg/kg/injection, schedule: Q04DX003 (ip), vehicle: saline
[24] = dose: 200.0 mg/kg/injection, schedule: Q04DX003 (ip), vehicle: saline
[25] = dose: 400.0 mg/kg/injection, schedule: Q04DX003 (ip), vehicle: saline

Measured: T/C

Cc1c(O)ccc(C(=O)CCl)c1O
inactive: dose: 12.0 mg/kg/injection, schedule: Q01DX009 (ip), vehicle: saline with Tween-80 100 % of control | [1] 102 % of control and 107 % of control | [2] 106 % of control | [3] 102 % of control

O=C(O)CCCCCCCCC1CC(F)(F)C(F)(F)S1 (stereo unspecified)
inactive: [4] 92 % of control | [5] 96 % of control | [6] 92 % of control

O=S1OCC=CCO1
inactive: dose: 50.0 mg/kg/injection, schedule: Q01DX001 (ip), vehicle: carboxymethylcellulose (CMC) 108 % of control | [7] 114 % of control | [8] 105 % of control

CCN(CC)CCOC(=S)Nc1ccccc1
inactive: dose: 25.0 mg/kg/injection, schedule: Q01DX009 (ip), vehicle: saline 100 % of control | dose: 50.0 mg/kg/injection, schedule: Q01DX009 (ip), vehicle: saline 109 % of control | dose: 100.0 mg/kg/injection, schedule: Q01DX009 (ip), vehicle: saline 96 % of control and 105 % of control

CCOC(=O)NC(C)(C)CN(CCO)C(=O)OCC
inactive: [9] 100 % of control | [2] 105 % of control | [10] 97 % of control | [3] 102 % of control | [11] 97 % of control | [12] 93 % of control

O=C1C(N2CCCC2)=C(N2CC2)C(=O)C(N2CCCC2)=C1N1CC1
inactive: dose: 0.25 mg/kg/injection, schedule: Q01DX009 (ip), vehicle: saline 94 % of control and 119 % of control | dose: 0.39 mg/kg/injection, schedule: Q04DX003 (ip), vehicle: saline 108 % of control | dose: 0.5 mg/kg/injection, schedule: Q01DX009 (ip), vehicle: saline 101 % of control and 103 % of control | dose: 0.78 mg/kg/injection, schedule: Q04DX003 (ip), vehicle: saline 96 % of control | dose: 1.0 mg/kg/injection, schedule: Q01DX009 (ip), vehicle: saline 106 % of control and 118 % of control | dose: 1.56 mg/kg/injection, schedule: Q04DX003 (ip), vehicle: saline 115 % of control | dose: 2.0 mg/kg/injection, schedule: Q01DX001 (ip), vehicle: saline 108 % of control | dose: 2.0 mg/kg/injection, schedule: Q01DX009 (ip), vehicle: saline 121 % of control and 124 % of control | dose: 4.0 mg/kg/injection, schedule: Q01DX001 (ip), vehicle: saline 97 % of control | dose: 8.0 mg/kg/injection, schedule: Q01DX001 (ip), vehicle: saline 87 % of control | dose: 12.5 mg/kg/injection, schedule: Q04DX003 (ip), vehicle: saline 92 % of control

CS(=O)(=O)N(c1ccccc1)c1ccccc1[N+](=O)[O-]
inactive: [13] 117 % of control | [14] 96 % of control | [15] 111 % of control

O=C(O)/C=C\Br
inactive: dose: 25.0 mg/kg/injection, schedule: Q01DX009 (ip), vehicle: Klucel (hydroxypropylcellulose) (HPC) 91 % of control | dose: 50.0 mg/kg/injection, schedule: Q01DX005 (ip), vehicle: Klucel (hydroxypropylcellulose) (HPC) 95 % of control | [16] 106 % of control | dose: 100.0 mg/kg/injection, schedule: Q01DX005 (ip), vehicle: Klucel (hydroxypropylcellulose) (HPC) 103 % of control | [9] 98 % of control

N#Cc1nc2nc(C(F)(F)F)[nH]c2nc1C#N
inactive: dose: 12.5 mg/kg/injection, schedule: Q01DX009 (ip), vehicle: saline with Tween-80 101 % of control | dose: 12.5 mg/kg/injection, schedule: Q04DX003 (ip), vehicle: saline with Tween-80 120 % of control | [1] 103 % of control | [17] 103 % of control | [18] 93 % of control

CC1(C)N=C(N)N=C(N)N1c1ccc(OCCCCNC(=O)Nc2cccc(S(=O)(=O)F)c2)c(Cl)c1
inactive: [1] 100 % of control | [18] 108 % of control | [19] 116 % of control

CCCCCCCCCCCCC[As](=O)(O)CCCCCCCCCCCCC
inactive: dose: 50.0 mg/kg/injection, schedule: Q01DX001 (ip), vehicle: saline 95 % of control | [20] 103 % of control | [21] 101 % of control | [22] 91 % of control

O=C(O)C(Cc1ccccc1)NS(=O)(=O)Cc1ccccc1 (stereo unspecified)
inactive: [13] 100 % of control | dose: 100.0 mg/kg/injection, schedule: Q04DX003 (ip), vehicle: other 96 % of control | [14] 102 % of control | dose: 200.0 mg/kg/injection, schedule: Q04DX003 (ip), vehicle: other 93 % of control | [15] 100 % of control | dose: 400.0 mg/kg/injection, schedule: Q04DX003 (ip), vehicle: other 93 % of control

CC(C)=C1C2CCC1C1C(=O)OC(=O)C21 (stereo unspecified)
inactive: [16] 95 % of control | dose: 50.0 mg/kg/injection, schedule: Q04DX003 (ip), vehicle: Klucel (hydroxypropylcellulose) (HPC) 102 % of control | dose: 100.0 mg/kg/injection, schedule: Q01DX001 (ip), vehicle: Klucel (hydroxypropylcellulose) (HPC) 98 % of control | [9] 88 % of control | [2] 102 % of control | dose: 200.0 mg/kg/injection, schedule: Q01DX001 (ip), vehicle: Klucel (hydroxypropylcellulose) (HPC) 105 % of control | [3] 100 % of control

c1ccc(C2c3cccc4c3C3c5c2cccc5C(c2ccccc2)c2cccc(c23)C4c2ccccc2)cc1 (stereo unspecified)
inactive: [4] 108 % of control | [5] 95 % of control | [6] 100 % of control

C/C=C/C1N(C)CCCN1C
inactive: [1] 97 % of control | [17] 102 % of control | [18] 98 % of control | dose: 50.0 mg/kg/injection, schedule: Q04DX003 (ip), vehicle: saline with Tween-80 93 % of control | [4] 91 % of control

CSc1ncc(C(=O)O)c(=O)[nH]1
inactive: [16] 95 % of control | [9] 88 % of control and 90 % of control | [2] 104 % of control | [10] 94 % of control | [3] 101 % of control | [11] 88 % of control | [12] 102 % of control

O=[N+]([O-])c1ccc(N/N=C(\CCc2ccccc2)c2ccccc2)c([N+](=O)[O-])c1
inactive: [18] 93 % of control | [19] 96 % of control | dose: 200.0 mg/kg/injection, schedule: Q01DX009 (ip), vehicle: saline with Tween-80 86 % of control

Nc1nc(SC2CCCCC2)c2[nH]cnc2n1
inactive: dose: 60.0 mg/kg/injection, schedule: Q01DX Z (ip), vehicle: carboxymethylcellulose (CMC) 95 % of control | dose: 120.0 mg/kg/injection, schedule: Q01DX Z (ip), vehicle: carboxymethylcellulose (CMC) 104 % of control | dose: 240.0 mg/kg/injection, schedule: Q01DX Z (ip), vehicle: carboxymethylcellulose (CMC) 106 % of control | dose: 480.0 mg/kg/injection, schedule: Q01DX Z (ip), vehicle: carboxymethylcellulose (CMC) 112 % of control

c1ccc2cc3c(cc2c1)oc1cc2ccccc2cc13
inactive: [2] 120 % of control | [3] 101 % of control | [12] 107 % of control

CC1=NNC(C)(C)C1
inactive: [23] 91 % of control | [24] 93 % of control | [25] 98 % of control

C=CCNC(=O)SCCC(=O)O
inactive: [20] 93 % of control | [21] 100 % of control | [22] 102 % of control

CC1CCCC(C)C1O (stereo unspecified)
inactive: [20] 103 % of control | [21] 101 % of control | [22] 103 % of control

CC(=O)OC1OC(C2COC(C)(C)O2)C2OC(C)(C)OC12 (stereo unspecified)
inactive: [7] 103 % of control | [8] 103 % of control | dose: 400.0 mg/kg/injection, schedule: Q01DX001 (ip), vehicle: carboxymethylcellulose (CMC) 103 % of control

CCCCCCCCC(CCCCCCCC)CCc1ccccc1
inactive: dose: 100.0 mg/kg/injection, schedule: Q01DX001 (ip), vehicle: saline + alcohol 101 % of control | dose: 200.0 mg/kg/injection, schedule: Q01DX001 (ip), vehicle: saline + alcohol 100 % of control | dose: 400.0 mg/kg/injection, schedule: Q01DX001 (ip), vehicle: saline + alcohol 97 % of control

NC(C(=O)O)C(CC(=O)O)C(=O)O (stereo unspecified)
inactive: [23] 93 % of control | [24] 95 % of control | [25] 98 % of control

— PubChem BioAssay AID248 (DTP/NCI, 2004)
